# Article PMC5570892, “Indole-based perenosins as highly potent HCl transporters and potential anti-cancer agents” (Scientific Reports, 2017)
# Test: Stability in vesicles by UV-Vis
# Type: physicochemical
# Conditions: POPC lipid solution, 2 hours
# Method: The spectra obtained over the course of 72 hours for 1d, 2 and 4-8 show similar trends, 3 was not tested because it was unavailable. All spectra show a decrease in the peak at around 400 nm after 6 hours and an increase in the peak at around 300 nm after 72 hours. These changes in spectra […]
# 72 hours. The absorbance for 6 decreases dramatically for the readings after 6 hours because most […]
# S7.2 Stability in Vesicles
# Stability studies were performed for the perenosins in vesicles using UV-Vis spectroscopy to probe the lifetime of compounds 1d and 2-8 at pH 7.2 and pH 4.6. Unilamellar vesicles were prepared using previously reported literature procedures7-9. A lipid film of POPC (1-palmitoyl-2-oleoyl-sn-glycero-3-phosphocholine) was prepared from a chloroform solution under reduced pressure and then dried under vacuum for 4 or more hours. The lipid film was rehydrated by vortexing with a solution of phosphate buffered (5 mM) sodium chloride (500 mM). The lipid suspension was then subjected to 9 freeze-thaw cycles and left to rest at room temperature for 30 minutes. After this, the suspension was extruded 25 times through a 400 nm polycarbonate membrane resulting in unilamellar vesicles of a mean diameter of 400 nm. […]
# Figure S65. Absorbance spectra taken over 2 hours of 1d (25 mM) in a sodium chloride (500 mM) phosphate buffered (5 mM) lipid solution. a) pH 7.2 b) pH 4.6 […]
compound,measurement,value
CCCCCc1cc(/N=C/c2[nH]c(C)cc2C)c2[nH]ccc2c1 [Perenosin 1d],stability in vesicles at pH 7.2,stable
